Test results published in patent publication US20070043104A1, “UII-modulating compounds and their use” (priority 2005, published 2007).
Where a name gives a salt, the structure may show the parent alone. Read-outs that look alike come from different tables or passages of the source.

Biological target: T1, human urotensin II receptor (Homo sapiens, UniProt Q9UKP6)
T1 construct: expressed in transfected cells; host or cells: NIH3T3 cells
T1 sequence (Q9UKP6 1-389): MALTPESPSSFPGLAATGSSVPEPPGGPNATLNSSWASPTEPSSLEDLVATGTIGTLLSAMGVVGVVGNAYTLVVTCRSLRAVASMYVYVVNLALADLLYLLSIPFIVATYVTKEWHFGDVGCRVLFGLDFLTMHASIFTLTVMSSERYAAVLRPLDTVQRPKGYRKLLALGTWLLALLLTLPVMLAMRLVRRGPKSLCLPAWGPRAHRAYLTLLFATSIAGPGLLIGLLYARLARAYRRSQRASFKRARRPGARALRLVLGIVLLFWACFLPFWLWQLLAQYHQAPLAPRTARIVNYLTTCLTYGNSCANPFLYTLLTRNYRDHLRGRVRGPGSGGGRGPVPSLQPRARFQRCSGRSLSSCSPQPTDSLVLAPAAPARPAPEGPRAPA
Test: Receptor Selection and Amplification (R-SAT) functional assay, NIH3T3 cells transfected with human urotensin II receptor and β-galactosidase marker
Type: cell-based
Conditions: for EC50 / pEC50: eight doses in triplicate; for Efficacy: Table 3, percent activation normalized to the reference ligand assigned 100%
Description: The functional receptor assay, Receptor Selection and Amplification Technology (R-SAT™), was used (with minor modifications from the procedure described previously (Brann, M. R. U.S. Pat. No. 5,707,798, 1998; Chem. Abstr. 1998, 128, 111548) to screen compounds for efficacy at the UII receptor. The RSAT assay was conducted as described herein.
Briefly, NIH3T3 cells were grown in tissue culture treated rollerbottles to 40-80% confluence in Dulbecco's modified Eagle's medium (DMEM) supplemented with 10% bovine calf serum (Hyclone) and 1% penicillin/streptomycin/glutamine (Invitrogen). Cells were transfected for 12-18 hours with the human urotensin II receptor and the β-galactosidase marker. After transfection, the cells were trypsinized, harvested and frozen in DMEM containing 10% DMSO. Frozen cells were later thawed and tested for a response to a control compound to perform quality control before initiation of pharmacological testing, ensuring the correct pharmacological response and sufficient sensitivity. To initiate the pharmacological assay, cells were thawed rapidly and prepared in DMEM media containing 0.4% calf serum (Hyclone), 30% UltraCulture (Biowhittaker), and 1% penicillin/streptomycin/glutamine (Invitrogen), and then plated at 10,000-40,000 cells per well of a 96½ area plate that contained either the test compounds or reference ligands. Cells were then grown in a humidified atmosphere with 5% ambient CO2 for five days. Media was then removed from the plates and marker gene activity was measured by the addition of the beta-galactosidase substrate ONPG (in PBS with 5% NP-40). The resulting colorimetric reaction was measured in a spectrophotometric plate reader (Titertek Inc.) at […].
pEC50 represents the negative logarithm of the concentration of ligand that caused 50% activation of the basal receptor response. Percent activation was calculated as the difference between the absorbance measurements in the absence of added ligand compared with that in the presence of saturating concentrations of ligand normalized to the absorbance difference for the reference ligand, which was assigned a value of 100%.
Results were determined in R-SAT assays and are expressed as pEC50, the negative of the log EC50 in molarity. Results are the average±standard deviation of 2-X determinations of the EC50 where each compound was tested in eight doses in triplicate.

[1] = NIH3T3, Table 3, percent activation normalized to the reference ligand assigned 100%, read-out: Efficacy
[2] = Table 3, negative of the log EC50 in molarity, average ± standard deviation (or range) of determinations
[3] = NIH3T3, Table 4, % efficacy normalized to UII at 100%
[4] = Table 4, negative of the log EC50 in molarity, average ± standard deviation of 2-5 determinations

Row | Molecule | Emax [1] [%] | pEC50 [2] | Emax [3] [%] | EC50 [4] [nM] | other results
1 | CCc1ccccc1C(=O)NC(CCN(C)C)c1ccc(Cl)cc1 (centres unmarked) [5c, N-[1-(4-Chlorophenyl)-3-dimethylamino-propyl]-2-ethyl-benzamide oxalate] | 140 ± 14 | – | – | – | EC50 [2]: 1020 nM
2 | CO[C@@H](C(=O)NC(CCN(C)C)c1ccc(Cl)cc1)c1ccccc1 (single isomer, unassigned; (-)) [(−) 5s, oxalate] | 165 ± 10 | – | – | – | EC50 [2]: 871 nM
3 | Cc1ccccc1C(=O)OC(CCN(C)C)c1ccc(Cl)cc1.Cl (centres unmarked) [4a, 1-(4-Chlorophenyl)-3-dimethylamino-propyl 2-methyl-benzoate HCl] | 126 ± 34 | 5.77 ± 0.01 | – | – | –
4 | CN(C)CCC(NC(=O)Nc1ccc(Oc2ccccc2)cc1)c1ccc(Cl)cc1 (centres unmarked) [8d, 1-[1-(4-Chlorophenyl)-3-dimethylaminopropyl]-3-(4-phenoxyphenyl)-carbamide oxalate oxalate] | 102 to 119 | – | – | – | EC50 [2]: 63.1 to 145 nM
5 | Cc1ccc(C(=O)OC(CCN(C)C)c2ccc(Cl)cc2)cc1.Cl (centres unmarked) [4c, 1-(4-Chlorophenyl)-3-dimethylamino-propyl 4-methyl-benzoate HCl] | 56 ± 6 | 5.56 ± 0.01 | – | – | –
6 | CCc1ccccc1C(=O)OC(CCN(C)C)c1ccc(Cl)cc1.Cl (centres unmarked) [4b, 1-(4-Chlorophenyl)-3-dimethylamino-propyl 2-ethyl-benzoate HCl] | 128 ± 31 | 5.89 ± 0.05 | – | – | –
7 | N-[1-(4-Chlorophenyl)-3-dimethylaminopropyloxycarbonyl]-4-phenyl-amine [7f] | – | 6.44-6.67 | – | – | Efficacy: 43-75%
8 | CN(C)CCC(OC(=O)c1ccc(C(F)(F)F)cc1)c1ccc(Cl)cc1 (centres unmarked) [4q, 1-(4-Chlorophenyl)-3-dimethylamino-propyl 4-trifluoromethyl-benzoate oxalate] | 36 to 38 | – | – | – | EC50 [2]: 1170 to 2090 nM
9 | COc1ccc(CC(=O)NC(CCN(C)C)c2ccc(Cl)cc2)cc1 (centres unmarked) [A3, N-[1-(4-Chlorophenyl)-3-dimethylamino-propyl]-2-(4-methoxyphenyl)acetamide HCl] | – | – | 65 ± 18 | 1510 | –
10 | (+)-N-[1-Chlorophenyl)-3-dimethylaminopropyl]-(R)-2-methoxy-2-phenyl-acetamide oxalate [(+) 5s] | – | 5.30 ± 0.07 | – | – | Efficacy: 112 ± 22%
11 | COc1cccc(NC(=O)NC(CCN(C)C)c2ccc(Cl)cc2)c1 (centres unmarked) [8b, 1-[1-(4-Chlorophenyl)-3-dimethylaminopropyl]-3-(3-methoxyphenyl)-carbamide oxalate] | 147 ± 26 | 5.87 ± 0.17 | – | – | –
12 | CN(C)CCC(OC(=O)Nc1ccc2ccccc2c1)c1ccc(Cl)cc1 (centres unmarked) [7g, N-[1-(4-Chlorophenyl)-3-dimethylaminopropyloxycarbonyl]-2-naphthyl-amine] | 74 to 107 | – | – | – | EC50 [2]: 263 to 759 nM
13 | CN(C)CCC(NC(=O)Cc1ccccc1)c1ccc(Cl)cc1.O=C(O)C(=O)O (centres unmarked) [5r, N-[1-(4-Chlorophenyl)-3-dimethylaminopropyl]-2-phenyl-acetamide oxalate] | 154 ± 34 | 5.71 ± 0.16 | – | – | –
14 | CN(C)CCC(NC(=O)c1ccc2c(c1)OCO2)c1ccc(Cl)cc1.O=C(O)C(=O)O (centres unmarked) [5l, N-(1-(4-chlorophenyl)-3-(dimethylamino)propyl)benzo [d][1,3]dioxole-5-carboxamide oxalate] | 148 ± 32 | 5.67 ± 0.17 | – | – | –
15 | CN(C)CCC(NC(=O)c1ccc(-c2ccccc2)cc1)c1ccc(Cl)cc1.O=C(O)C(=O)O (centres unmarked) [5o, N-[1-(4-Chlorophenyl)-3-dimethylamino-propyl]-4-phenyl-benzamide oxalate] | 116 ± 11 | 7.11 ± 0.01 | – | – | –
16 | CN(C)CCC(NC(=O)CCc1ccccc1)c1ccc(Cl)cc1 (centres unmarked) [A4, N-[1-(4-Chlorophenyl)-3-dimethylamino-propyl]-3-phenyl-propionamide HCl] | – | – | 139 ± 5 | 1660 | –
17 | CN(C)CCC(OC(=O)Nc1ccc(C(F)(F)F)cc1)c1ccc(Cl)cc1 (centres unmarked) [7i, N-[1-(4-Chlorophenyl)-3-dimethylaminopropyloxycarbonyl]-4-trifluoromethylphenyl-amine] | 70 to 114 | – | – | – | EC50 [2]: 178 to 309 nM
18 | CN(C)CCC(NC(=O)c1ccc(-c2ccccc2)cc1)c1ccc(Cl)cc1.O=C(O)C(=O)O (single isomer, unassigned; (+)) [(+) 5o, (+)-N-[1-(4-Chlorophenyl)-3-dimethylamino-propyl]-4-phenyl-benzamide oxalate] | – | – | – | – | EC50 [2]: 12.3 to 27.5 nM; Efficacy (oxalate): 104-108%
19 | CN(C)CCC(NC(=O)c1ccccc1)c1ccc(Cl)cc1.Cl (centres unmarked) [5a, N-[1-(4-Chlorophenyl)-3-dimethylamino-propyl]-benzamide HCl] | 158 ± 39 | 5.85 ± 0.01 | – | – | –
20 | Cc1cccc(Cl)c1C(=O)NC(CCN(C)C)c1ccc(Cl)cc1.O=C(O)C(=O)O (centres unmarked) [5k, N-[1-(4-Chlorophenyl)-3-dimethylamino-propyl]-6-chloro-2-methyl-benzamide oxalate] | 105 ± 4 | 5.29 ± 0.09 | – | – | –
21 | CN(C)CCC(NC(=O)Nc1ccc(C(C)(C)C)cc1)c1ccc(Cl)cc1 (centres unmarked) [8c, 1-[1-(4-Chlorophenyl)-3-dimethylaminopropyl]-3-(4-tert-butylphenyl)-carbamide oxalate] | 101 ± 36 | – | – | – | EC50 [2]: 186 nM
22 | CN(C)CCC(NC(=O)c1ccc2ccccc2c1)c1ccc(Cl)cc1 (centres unmarked) [5n, N-[1-(4-Chlorophenyl)-3-dimethylamino-propyl]-2-naphthyl-carboxamide oxalate] | 109 ± 18 | – | – | – | EC50 [2]: 407 nM

The next lines start with results.

Row | Emax [1] [%] | pEC50 [2] | Emax [3] [%] | EC50 [4] [nM] | Molecule | other results
23 | – | – | 116 ± 3 | 589 | CN(C)CCC(NC(=O)/C=C/c1ccccc1)c1ccc2ccccc2c1 (centres unmarked) [C7, N-[3-Dimethylamino-1-(2-naphthyl)propyl]-3-cinnamic amide HCl] | –
24 | – | – | 97 ± 6 | 1550 | Cc1ccc(C(CCN(C)C)NC(=O)C=Cc2ccccc2)cc1 (centres unmarked) [B7, N-[3-Dimethylamino-1-(4-methylphenyl)propyl]cinnamic amide] | –
25 | – | – | 96 ± 1 | 437 | Cc1ccc(C(CCN(C)C)NC(=O)C=Cc2ccc(C(F)(F)F)cc2)cc1 (centres unmarked) [B8, N-[3-Dimethylamino-1-(4-methylphenyl)propyl]-4-trifluoromethyl-cinnamic amide HCl] | –
26 | – | – | 40 ± 3 | 575 | CN(C)CCC(NC(=O)Cc1ccc(C(F)(F)F)cc1)c1ccc2ccccc2c1 (centres unmarked) [C2, N-[3-Dimethylamino-1-(2-naphthyl)propyl]-2-(4-trifluoromethylphenyl)acetamide HCl] | –
27 | – | – | 99 ± 4 | 513 | COc1ccc(C=CC(=O)NC(CCN(C)C)c2ccc(Cl)cc2)cc1 (centres unmarked) [A9, N-[1-(4-Chlorophenyl)-3-dimethylamino-propyl]-4-methoxy-cinnamic amide HCl] | –
28 | – | – | 25 ± 4 | 1120 | Cc1ccc(C(CCN(C)C)NC(=O)Cc2ccc(C(F)(F)F)cc2)cc1 (centres unmarked) [B2, N-[3-Dimethylamino-1-(4-methylphenyl)propyl]-2-(4-trifluoromethylphenyl)acetamide HCl] | –
29 | – | – | 115 ± 14 | 457 | CN(C)CCC(NC(=O)C#Cc1ccccc1)c1ccc2ccccc2c1 (centres unmarked) [C10, N-[3-Dimethylamino-1-(2-naphthyl)propyl]-3-phenylpropiolic amide HCl] | –
30 | – | – | 107 ± 22 | 603 | CN(C)CCC(NC(=O)CCc1ccccc1)c1ccc2ccccc2c1 (centres unmarked) [C4, N-[3-Dimethylamino-1-(2-naphthyl)propyl]-3-phenyl-propionamide HCl] | –
31 | – | – | 106 ± 16 | 380 | COc1ccc(C=CC(=O)NC(CCN(C)C)c2ccc3ccccc3c2)cc1 (centres unmarked) [C9, N-[3-Dimethylamino-1-(2-naphthyl)propyl]-4-methoxy-cinnamic amide HCl] | –
